Experimental data from article PMC9317316, “Synthesis and Evaluation of Some New 4H-Pyran Derivatives as Antioxidant, Antibacterial and Anti-HCT-116 Cells of CRC, with Molecular Docking, Antiproliferative, Apoptotic and ADME Investigations” (Pharmaceuticals, 2022).
Values joined by “and” are separate entries in the source; they are usually repeats but may differ in a detail not shown here. Equal values may be shown once. Read-outs that look alike come from different tables or passages of the source.

How the values were obtained:
[1] = tested on: HCT-116 cells; assay: Cell viability (cytotoxicity, LDH release) assay; assay type: cell-based; details: Homo sapiens, 24 h; for viability at 100 µg/mL: read-out: percent of viable cells
Experimental: The synthesized compounds were also examined at four concentrations (10, 25, 50 and 100 µg/mL) for their cytotoxic effects on human colorectal cancer HCT-116 cells after their incubation together for 24 h.
Cytotoxic potency was examined for a human colon cancer cell line HCT-116 (American Type Culture Collection; Manassas, VA, USA) using various amounts of each compound (10, 25, 50 and 100 µg). Samples were diluted in Dulbecco’s Modified Eagle’s Medium, consisting of 10% Fetal Bovine Serum, and added to cells grown and cultured for 24 h in a 5% CO2-humidified incubator at 37 °C. Then, the activity of lactate dehydrogenase released from damaged cells was determined in the collected supernatant aliquots using an ELISA endpoint assay (Benchmark Plus, Bio-Rad, Hercules, CA, USA). As positive and negative controls, respectively, 0.1% Triton X-100 in the assay medium and the assay medium only were used. Cell viability, shown as mean values ± SDs (n = 3), was expressed as a relative percentage of the OD values determined at 600 nm in compound-treated cells and the control.

[2] = DPPH radical scavenging assay; details: for IC50: 0.03 to 1 mg/mL, 1 h, mean ± SD, triplicate, read-out: IC50 (mM) for DPPH Scavenging Potency
Experimental: The IC50 values for DPPH were calculated from the plot of the scavenging effect against the compound concentration.
The compounds’ capacities to scavenge the stable radical 1,1 diphenyl-2-picrylhydrazyl (DPPH) formed in solution by donation of a hydrogen atom or an electron was investigated according to the method described by Bersuder and coworkers. Due to the fact that the initial blue/purple solution of diphenyl picrylhydrazine changes to yellow in the presence of compounds with a capacity to scavenge DPPH free radicals, this reaction is used as a measure of a compound’s ability to scavenge any free radical. Briefly, a 0.5 mL volume of DPPH ethanolic solution was mixed with an equal volume of each sample concentration (0.03 to 1 mg/mL), shaken strongly and incubated at room temperature for 1 h in darkness. The absorbance of the residual DPPH radicals was measured at 519 nm and compared to that of the control (without the tested compound). DPPH radical scavenging was calculated using the following formula: Scavenging effect (%) = (1 − Acompound/AControl) × 100, where Acompound and Acontrol are the absorbances of the tested compound and of the control, respectively. A plot of the scavenging effect (%) versus the sample concentration was also performed to determine the compound concentration providing 50% inhibition (IC50).

[3] = tested on: S. enteric (ATCC 43972); assay: Antibacterial viability (CFU) assay, IC50; assay type: cell-based; details: read-out: IC50
Experimental: (§1) The results for the in vitro antibacterial properties of the synthesized compounds against five Gram-positive and four Gram-negative human-pathogenic strains, which were assessed by both the agar diffusion method (based on inhibition zone (IZ)) and the broth dilution bioassay (for the determination of the half-maximal inhibitory concentration (IC50) values), using ampicillin as the reference antibiotic drug, are shown in Table 2 and Table 3.
(§2) The antibacterial activity of all synthesized compounds was evaluated against the Gram-negative strains E. coli (ATCC 25966), K. pneumonia (ATCC 700603), P. aeruginosa (ATCC 27853) and S. enteric (ATCC 43972) and against the Gram-positive strains B. cereus (ATCC 14579), B. subtilis (ATCC 6633), E. faecalis (ATCC 29122), S. aureus (ATCC 25923) and S. epidermidis (ATCC 14990), using the agar diffusion method through measuring the appearance of the inhibition zone on the surface of the top agar, as reported by Berghe and Vlietinck. Ampicillin (10 µg/well) was used as the positive reference standard. Bacterial viability was also investigated by determining the colony-forming ability (CFU) of bacteria incubated at different time intervals without or with appropriate amounts of the compound, which were mixed with 2 ×10^7 CFU/mL in sterile BHI and incubated under shaking for 60 min at 37 °C. Samples were serially diluted into sterile BHI, streaked onto media agar plates and incubated for 24 h at 37 °C. The antibacterial potency of the tested compounds was expressed as the residual number of CFUs with reference to the initial inoculums. The results presented as the half-maximal (50 %) inhibitory concentration (IC50) values are the means of three different measurements.

[4] = tested on: B. subtilis (ATCC 6633); assay: Antibacterial viability (CFU) assay, IC50; assay type: cell-based
Experimental: as §1, §2

[5] = tested on: K. pneumonia (ATCC 700603); assay: Antibacterial viability (CFU) assay, IC50; assay type: cell-based; details: Klebsiella pneumoniae, ATCC700603
Experimental: as §1, §2

[6] = tested on: P. aeruginosa (ATCC 27853); assay: Antibacterial viability (CFU) assay, IC50; assay type: cell-based; details: Pseudomonas aeruginosa, ATCC27853
Experimental: as §1, §2

[7] = tested on: S. aureus (ATCC 25923); assay: Antibacterial viability (CFU) assay, IC50; assay type: cell-based; details: Staphylococcus aureus, ATCC25923
Experimental: as §1, §2

[8] = tested on: B. cereus (ATCC 14579); assay: Antibacterial viability (CFU) assay, IC50; assay type: cell-based; details: Bacillus cereus, ATCC14579
Experimental: as §1, §2

[9] = tested on: E. faecalis (ATCC 29122); assay: Antibacterial viability (CFU) assay, IC50; assay type: cell-based; details: Enterococcus faecalis, ATCC29122
Experimental: as §1, §2

[10] = tested on: E. coli (ATCC 25966); assay: Antibacterial viability (CFU) assay, IC50; assay type: cell-based; details: Escherichia coli, ATCC25966; E. coil (ATCC 25966)
Experimental: as §1, §2

[11] = tested on: S. epidermidis (ATCC 14990); assay: Antibacterial viability (CFU) assay, IC50; assay type: cell-based; details: Staphylococcus epidermidis, ATCC14990
Experimental: as §1, §2

[12] = tested on: S. enteric (ATCC 43972); assay: Antibacterial agar diffusion method (inhibition zone); assay type: cell-based
Experimental: as §1, §2

[13] = tested on: B. subtilis (ATCC 6633); assay: as above; assay type: cell-based
Experimental: as §1, §2

[14] = tested on: K. pneumonia (ATCC 700603); assay: as above; assay type: cell-based
Experimental: as §1, §2

[15] = tested on: P. aeruginosa (ATCC 27853); assay: as above; assay type: cell-based
Experimental: as §1, §2

[16] = tested on: S. aureus (ATCC 25923); assay: as above; assay type: cell-based
Experimental: as §1, §2

[17] = tested on: B. cereus (ATCC 14579); assay: as above; assay type: cell-based
Experimental: as §1, §2

[18] = tested on: E. faecalis (ATCC 29122); assay: as above; assay type: cell-based
Experimental: as §1, §2

[19] = tested on: E. coli (ATCC 25966); assay: as above; assay type: cell-based; details: E. coil (ATCC 25966)
Experimental: as §1, §2

[20] = tested on: S. epidermidis (ATCC 14990); assay: as above; assay type: cell-based
Experimental: as §1, §2

[21] = Reducing power assay (FRAC, Fe3+ to Fe2+); details: 0-1 mg/mL, absorbance 700 nm
Experimental: Secondly, FRAC was determined over the concentration range of 0.0−1 mg/mL via monitoring Fe^3+−Fe^2+ transformation in the presence of the studied compounds and the reference antioxidant BHT to estimate the values of efficient concentration (EC50), expressed in mM.
The reducing power of the studied compounds was assessed according to Oyaizu’s method. Briefly, different concentrations (ranging from 0 to 1 mg/mL) of each tested compound were first mixed with 1 mL of 0.2 M sodium phosphate buffer (pH 6.6) and 1 mL of 1% potassium ferricyanide (K3Fe(CN)6) and incubated at 50 °C for 20 min. After the addition of 1.25 mL of 20% trichloroacetic acid (TCA), the mixture was centrifuged for 10 min at 3000 rpm and the upper layer solution was then mixed with 0.5 mL of 0.1% fresh ferric chloride and an equal volume of deionized water. Finally, the absorption of the resulting mixture was measured at 700 nm using a UV spectrophotometer against distilled water as the blank, while butylated hydroxytoluene (BHT) was used as a positive control. The sample ferric reducing power capability was indicated by increased absorbance.

[22] = read-out: Mean IC50 (µM) of cytotoxicity
[23] = read-out: Mean IC50 (µg/mL) of cytotoxicity
[24] = Bacillus subtilis, ATCC6633, B. subtilis (ATCC 6633)

Compound | viability at 100 µg/mL [1] | IC50 [1, 22] | IC50 [1, 23] | IC50 [2] | DPPH Radical Scavenging Effenciency (%) at 1 mg/mL [2] | IC50 [3] | IC50 [4, 24] | IC50 [5] | IC50 [6] | IC50 [7] | IC50 [8] | IC50 [9] | IC50 [10] | IC50 [11] | IZ (mm) [12] | IZ (mm) [13] | IZ (mm) [14] | IZ (mm) [15] | IZ (mm) [16] | IZ (mm) [17] | further results
CC1=C(C(=O)OCc2ccccc2)C(c2ccccc2Cl)C(C#N)=C(N)O1 (stereo not drawn) [4l, 6-Amino-4-(2-chloro-phenyl)-5-cyano-2-methyl-4H-pyran-3-carboxylic acid benzyl ester] | 11 to 32.5% | 93.4 ± 4.63 µM | 35.5 ± 1.77 µg/mL | 0.919 ± 0.026 mM | 70.20% and 70.20 ± 1.70% | 77.6 ± 1.58 µM | 23.6 to 36.8 µM | 77.5 ± 7.08 µM | 72.7 ± 2.63 µM | 31.1 ± 0.55 µM | 33.2 ± 2.42 µM | 37.8 ± 1.5 µM | 90.1 ± 2.63 µM | 33.4 ± 1.1 µM | 4.0 ± 0.0 mm | 11.50 ± 0.71 mm | 2.5 ± 0.7 mm | 4.5 ± 0.7 mm | 9.00 mm and 9.00 ± 1.41 mm | 10.00 ± 1.41 mm | IC50 ([4]; B. subtilis (ATCC 6633)): 32.6 ± 1.5 µM; IZ (mm) [18]: 6.00 ± 1.41 mm; IZ (mm) [19]: 3.5 ± 0.7 mm; IZ (mm) [20]: 10.50 ± 0.71 mm; melting point: 162 to 164 °C; EC50 [21]: 801 ± 19 µM
CCOC(=O)C1=C(C)OC(N)=C(C#N)C1c1cccc(-c2ccccc2)c1 (stereo not drawn) [4e, 6-Amino-4-biphenyl-3-yl-5-cyano-2-methyl-4H-pyran-3-carboxylic acid ethyl ester] | 11 to 32.5% | 138 ± 9.78 µM | 49.7 ± 3.53 µg/mL | 1.65 ± 0.097 mM | 39.25 ± 1.06% | 96.1 ± 2.5 µM | 37.7 ± 1.58 µM | 90.7 ± 2.78 µM | 88 ± 2.78 µM | 34.8 ± 2.16 µM | 33.6 ± 1.58 µM | 37.3 ± 2.16 µM | 103 ± 3.05 µM | 30.8 ± 1.58 µM | 3.5 ± 0.7 mm | 20.50 ± 0.71 mm | 2.5 ± 0.7 mm | 4.5 ± 0.7 mm | 16.50 ± 2.10 mm | 23.00 ± 1.41 mm | IZ (mm) [18]: 15.50 ± 0.71 mm; IZ (mm) [19]: 2.7 ± 0.35 mm; IZ (mm) [20]: 20.50 mm and 20.50 ± 2.12 mm; melting point: 186 to 190 °C; EC50 [21]: 305 ± 39 µM
